These results are taken from patent US20260217698A1 (BEYANG THERAPEUTICS CO., LTD., priority 2022, published 2026).

Molecules are shown by their SMILES.

In one data set the target is T1, TIE2 (Homo sapiens, UniProt Q02763).
T1 construct: purchased BPS 40270
Put plainly: Kinase inhibition, Mobility Shift Assay/IMAP, TIE2. It counts as biochemical. The text has this: (§1) This assay directly monitored the ability of compounds to inhibit kinase phosphorylation by measuring non-phosphorylated and phosphorylated substrates in kinase reactions by using Mobility Shift Assays/IMAP™ analysis.
(§2) Read the conversion ratio data on CaliperEZ Reader II. Convert conversion rates into inhibition ratio data.
(§3) “Min” indicates the readout of the control well without the addition of enzymes; and “Max” indicates the readout of the control well with the addition of DMSO Fit IC50 values with XL Fit excel add-in version […].
(§4) X indicates the log value of compound concentration, and Y indicates the inhibition ratio (% inhibition).

A further data set concerns the target T2, EGFR (Homo sapiens, UniProt P00533).
T2 construct: purchased Carna 08-115
Briefly: Kinase inhibition, Mobility Shift Assay/IMAP, EGFR. It counts as biochemical.
Source text: as §1, §2, §3, §4

Another data set has as its target VEGFR2 (Homo sapiens, UniProt P35968). Put plainly: Kinase inhibition, Mobility Shift Assay/IMAP, VEGFR2. In kind it is biochemical. Details: purchased Carna 08-191.
Source text: as §1, §2, §3, §4

Another data set has as its system melanin. Put plainly: Binding capacity of compounds to melanin. The note with it: cuttlefish (Sepia officinalis), melanin suspension (1 mg/mL); 1 mg/mL melanin in PBS pH 7.4, 2 μM compound, 2 h at 37° C.; read-out: Fu % (percentage of free drug). It counts as in vitro ADME, cuttlefish (Sepia officinalis). The text has this:
Pigmented eye tissues contain melanin in intracellular melanosomes. Drugs bind to melanin to varying degrees, ranging from non-binding to extensive binding. Therefore, melanin binding is an important feature that affects drug delivery and biodistribution in the eye. The binding capacity of the compound to the melanin must be considered in the development of ophthalmic drugs.
Melanin was derived from the melanin of cuttlefish (Sepia officinalis) and was commercially available from Sigma Aldrich (St Louis, MO).
First, prepare 1 mg/mL melanin suspension with PBS (pH 7.4). As a washing step for the matrix, centrifuge the suspended particles for 5 min at 3000 rpm. Resuspend the resulting particles in a fresh PBS buffer, heat to 37° C. over continuous shaking and incubate it for 1 h. Accurately pipette 2 μL of the test stock solution (0.1 mM) into 98 μL of melanin suspension (1 mg/mL) to achieve a final incubation concentration of 2 μM. Similarly, accurately pipette 2 μL of the stock solution (0.1 mM) to 98 μL of PBS buffer (containing 0.1% BSA) as a blank control sample. Incubate the samples in a shaker (80-90 rpm) for 2 h at 37° C. Then, centrifuge the samples at room temperature. Pipette 50 μL of the supernatant and add 50 μL of precipitant (containing an internal standard). After protein precipitation of all the above samples, centrifuge the samples to collect the supernatants, dilute the supernatants with water (if necessary) and inject them for analysis. At the same time, measure the positive controls, including the high-binding compounds Sunitinib and chloroquine and the low-binding compound celecoxib. Establish an LC-MS/MS method for determining compound concentrations, and calibrate the peak area ratio of analyte/internal standard (Analyte/AIS) in the measured sample by the dilution factor to take it as an alternative concentration for the sample for data processing. The binding rate (Fb) of a compound in melanin was calculated as: […]
Ctest was the concentration of the compound in the melanin-incubated sample or the peak area ratio of the test compound to the internal standard. Ccontrol was the concentration of the compound in the blank control sample or the peak area ratio of the test compound to the internal standard. […]

VEGFR2, sequence (P35968 790-1356 limits assumed): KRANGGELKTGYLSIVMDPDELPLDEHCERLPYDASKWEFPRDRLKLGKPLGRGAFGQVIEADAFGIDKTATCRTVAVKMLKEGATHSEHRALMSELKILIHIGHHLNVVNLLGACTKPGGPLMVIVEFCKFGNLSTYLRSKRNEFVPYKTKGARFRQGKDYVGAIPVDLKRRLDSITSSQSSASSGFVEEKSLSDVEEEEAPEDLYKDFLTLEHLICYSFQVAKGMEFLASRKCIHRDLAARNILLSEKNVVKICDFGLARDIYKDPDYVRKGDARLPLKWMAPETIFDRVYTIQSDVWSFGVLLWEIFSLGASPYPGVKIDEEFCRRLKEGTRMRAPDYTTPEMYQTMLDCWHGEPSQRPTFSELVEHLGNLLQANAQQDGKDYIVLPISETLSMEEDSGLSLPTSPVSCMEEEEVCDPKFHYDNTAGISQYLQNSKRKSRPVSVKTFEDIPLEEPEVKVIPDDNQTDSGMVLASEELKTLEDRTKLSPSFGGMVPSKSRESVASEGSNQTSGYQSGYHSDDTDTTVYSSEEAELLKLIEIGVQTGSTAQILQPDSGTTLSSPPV
T1 sequence (Q02763 23-1124): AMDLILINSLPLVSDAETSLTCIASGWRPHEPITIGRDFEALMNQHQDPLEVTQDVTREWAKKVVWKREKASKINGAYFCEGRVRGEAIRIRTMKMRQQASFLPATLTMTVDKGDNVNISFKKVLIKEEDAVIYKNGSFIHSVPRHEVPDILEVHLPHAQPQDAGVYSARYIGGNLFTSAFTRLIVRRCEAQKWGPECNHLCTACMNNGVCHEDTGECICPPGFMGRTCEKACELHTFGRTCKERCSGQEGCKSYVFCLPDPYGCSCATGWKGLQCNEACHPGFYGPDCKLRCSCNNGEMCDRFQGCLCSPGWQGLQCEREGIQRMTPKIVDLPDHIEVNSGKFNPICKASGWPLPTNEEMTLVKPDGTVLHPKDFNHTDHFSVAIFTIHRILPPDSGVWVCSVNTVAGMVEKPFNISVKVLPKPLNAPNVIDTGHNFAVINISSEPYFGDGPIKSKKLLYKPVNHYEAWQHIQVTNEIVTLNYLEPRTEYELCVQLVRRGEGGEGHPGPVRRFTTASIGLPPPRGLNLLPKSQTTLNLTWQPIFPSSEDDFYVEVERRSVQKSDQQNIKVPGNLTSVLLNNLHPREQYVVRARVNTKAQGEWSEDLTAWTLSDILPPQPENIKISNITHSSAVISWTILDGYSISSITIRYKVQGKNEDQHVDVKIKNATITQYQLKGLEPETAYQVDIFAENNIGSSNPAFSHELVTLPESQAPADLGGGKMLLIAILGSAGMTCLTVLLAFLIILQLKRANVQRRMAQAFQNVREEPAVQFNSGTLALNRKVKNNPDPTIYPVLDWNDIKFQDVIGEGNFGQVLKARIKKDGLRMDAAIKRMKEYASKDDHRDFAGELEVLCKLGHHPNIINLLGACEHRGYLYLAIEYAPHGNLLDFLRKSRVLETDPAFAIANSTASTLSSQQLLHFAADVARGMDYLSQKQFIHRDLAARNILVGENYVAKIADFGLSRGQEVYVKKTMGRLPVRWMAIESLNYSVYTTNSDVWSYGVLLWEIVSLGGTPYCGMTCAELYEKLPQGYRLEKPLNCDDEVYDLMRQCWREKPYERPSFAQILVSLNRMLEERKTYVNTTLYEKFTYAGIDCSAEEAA
T2 sequence (P00533 669-1210 limits assumed): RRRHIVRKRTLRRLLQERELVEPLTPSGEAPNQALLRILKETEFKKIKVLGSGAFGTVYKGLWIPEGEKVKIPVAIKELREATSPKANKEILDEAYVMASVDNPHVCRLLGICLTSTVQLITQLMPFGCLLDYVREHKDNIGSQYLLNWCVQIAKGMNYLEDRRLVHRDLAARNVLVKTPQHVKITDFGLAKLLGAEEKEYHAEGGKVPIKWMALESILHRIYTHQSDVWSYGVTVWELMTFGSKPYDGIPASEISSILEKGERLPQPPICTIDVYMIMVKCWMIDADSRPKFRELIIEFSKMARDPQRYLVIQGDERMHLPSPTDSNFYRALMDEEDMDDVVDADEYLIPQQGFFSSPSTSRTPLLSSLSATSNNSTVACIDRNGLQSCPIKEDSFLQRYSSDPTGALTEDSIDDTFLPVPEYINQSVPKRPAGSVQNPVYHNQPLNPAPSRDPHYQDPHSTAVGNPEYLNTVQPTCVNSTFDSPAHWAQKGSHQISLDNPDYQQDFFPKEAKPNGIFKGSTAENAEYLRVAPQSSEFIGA

For `COc1ccc(COc2nsc(NC(=O)NCCCCN3CCCC3)c2C(N)=O)cn1` [Compound T033], the IC50 at TIE2 was found to be 1460 nM; at EGFR it was 54900 nM; at VEGFR2, 51.9 nM.
For the compound `NC(=O)c1c(OCc2ccc3c(c2)CCO3)nsc1NC(=O)NCCCCN1CCCC1` [Compound T044, 3-((2,3-dihydrobenzofuran-5-yl)methoxy)-5-(3-(4-(pyrrolidin-1-yl)butyl)ureido)isothiazole-4-carboxamide], the IC50 at TIE2 came to 1640 nM; at EGFR, 10000 nM; on VEGFR2 it was 128 nM.
Regarding `NC(=O)c1c(OCc2c(F)cc(Br)cc2F)nsc1Nc1cncc(OCCN2CCCC2)c1` [Compound T045, 3-((4-bromo-2,6-difluorobenzyl)oxy)-5-((5-(2-(pyrrolidin-1-yl)ethoxy)pyridin-3-yl)amino)isothiazole-4-carboxamide], the figures for the IC50 on TIE2 and on VEGFR2 were 230 nM and 22.1 nM, respectively.
For `NC(=O)c1c(OCc2cc(Cl)c3cncn3c2)nsc1NC(=O)NCCCCN1CCCC1` [Compound T051, 3-((8-chloroimidazo[1,5-a]pyridin-6-yl)methoxy)-5-(3-(4-(pyrrolidin-1-yl)butyl)ureido)isothiazole-4-carboxamide], the half-inhibitory concentration (IC50) at TIE2 came to 3210 nM.
Regarding `NC(=O)c1c(OCc2cccc(-n3cccn3)c2)nsc1NC(=O)NCCCCN1CCCC1` [Compound T068, 3-((3-(1H-pyrazol-1-yl)benzyl)oxy)-5-(3-(4-(pyrrolidin-1-yl)butyl)ureido)isothiazole-4-carboxamide], the 50% inhibitory concentration (IC50) was found to be 1610 nM on TIE2, 4410 nM on EGFR and 171 nM at VEGFR2.
With `CN1CCN(CCCNC(=O)Nc2snc(OCc3cccc(C(=O)C4CC4)c3)c2C(N)=O)CC1` [Compound T086, 3-((3-(cyclopropanecarbonyl)benzyl)oxy)-5-(3-(3-(4-methylpiperazin-1-yl)propyl)ureido)isothiazole-4-carboxamide], the half-maximal inhibitory concentration (IC50) on TIE2 worked out at 895 nM; at EGFR, 6830 nM.
Turning to `COc1ccc(F)c(COc2nsc(NC(=O)NCCCCN3CCCC3)c2C(N)=O)c1` [Compound T092, 3-[(2-fluoro-5-methoxy-phenyl)methoxy]-5-(4-pyrrolidin-1-ylbutylcarbamoylamino)isothiazole-4-carboxamide], the figures for the half-inhibitory concentration (IC50) at TIE2 and at VEGFR2 were 596 nM and 17.2 nM, respectively. Moreover, the fraction unbound at 2 h, 2 μM in the data set on melanin was found to be 0.031.
As for `COc1cc(COc2nsc(NC(=O)NCCCCN3CCCC3)c2C(N)=O)c(F)c(OC)c1` [Compound T094, 3-[(2-fluoro-3,5-dimethoxy-phenyl)methoxy]-5-(4-pyrrolidin-1-ylbutylcarbamoylamino)isothiazole-4-carboxamide], the concentration for half-maximal inhibition (IC50) at TIE2 is 413 nM; on EGFR, greater than 60000 nM; at VEGFR2 it was 9.1 nM. Besides, the fraction unbound at 2 h, 2 μM in the data set on melanin turned out to be 0.0481.
Turning to `CN1CC[C@@H](CCNC(=O)Nc2snc(OCc3cc4c(cc3F)CCO4)c2C(N)=O)C1` [Compound T102, 3-[(5-fluoro-2,3-dihydrobenzofuran-6-yl)methoxy]-5-[2-[(3R)-1-methylpyrrolidin-3-yl]ethylcarbamoylamino]isothiazole-4-carboxamide], the half-inhibitory concentration (IC50) on TIE2 came to 142 nM; on EGFR, 9890 nM; at VEGFR2 it was 5.5 nM. In addition, in the data set on melanin, the fraction unbound at 2 h, 2 μM came to 0.0235.
As to `NC(=O)c1c(OCc2cc(C(=O)NC3CC3)ccc2F)nsc1NC(=O)NCCC1CCN(CCF)CC1` [Compound T108, 3-[[5-(cyclopropylcarbamoyl)-2-fluoro-phenyl]methoxy]-5-[2-[1-(2-fluoroethyl)-4-piperidyl]ethylcarbamoylamino]isothiazole-4-carboxamide], the IC50 on TIE2 is 621 nM; at VEGFR2, 0.72 nM. In addition, in the data set on melanin, the fraction unbound at 2 h, 2 μM came to 0.0271.
Turning to `COc1ccc(F)c(COc2nsc(NC(=O)NCCCN3CC[C@@H](F)C3)c2C(N)=O)c1F` [Compound T121, 3-[(2,6-difluoro-3-methoxy-phenyl)methoxy]-5-[3-[(3R)-3-fluoropyrrolidin-1-yl]propylcarbamoylamino]isothiazole-4-carboxamide], the IC50 on TIE2 was 230 nM; at EGFR, 17200 nM; at VEGFR2, 40 nM.
As to `CN1CCC(CCNC(=O)Nc2snc(OCc3cc(C(=O)NC4CC4)ccc3Cl)c2C(N)=O)CC1` [Compound T139, 3-[[2-chloro-5-(cyclopropylcarbamoyl)phenyl]methoxy]-5-[2-(1-methyl-4-piperidyl)ethylcarbamoylamino]isothiazole-4-carboxamide], the IC50 at TIE2 came to 366 nM; on EGFR, 10100 nM; at VEGFR2, 0.41 nM.
As to `COc1ccc(Cl)c(COc2nsc(NC(=O)NCCCCN3CCCC3)c2C(N)=O)c1F` [Compound T146], the values for the IC50 on TIE2, at EGFR and at VEGFR2 were 739 nM, 26100 nM and 10.5 nM, respectively.
As to `O=C(NCCCN1CC[C@H](F)C1)Nc1snc(OCc2cc(C(=O)NC3CC3)ccc2F)c1C(=O)O` [Compound T155, 3-[[5-(cyclopropylcarbamoyl)-2-fluoro-phenyl]methoxy]-5-[3-[(3S)-3-fluoropyrrolidin-1-yl]propylcarbamoylamino]isothiazole-4-carboxylic acid], the IC50 at TIE2 and on EGFR was greater than 60000 nM throughout.
`NC(=O)c1c(OCc2cc(C(=O)NC3CC3)ccc2F)nsc1NC(=O)NCCCN1CCN(C2CC2)CC1` [Compound T158, 3-[[5-(cyclopropylcarbamoyl)-2-fluoro-phenyl]methoxy]-5-[3-(4-cyclopropylpiperazin-1-yl)propylcarbamoylamino]isothiazole-4-carboxamide]: the half-maximal inhibitory concentration (IC50) on TIE2 is 5380 nM; on EGFR it was 9840 nM; on VEGFR2, 1.05 nM.
Take `NC(=O)c1c(OCc2ccc(F)c(C(=O)NC3CC3)c2)nsc1NC(=O)NCCCN1CCNCC1` [Compound T160, 3-[[3-(cyclopropylcarbamoyl)-4-fluoro-phenyl]methoxy]-5-(3-piperazin-1-ylpropylcarbamoylamino)isothiazole-4-carboxamide]: the values for the IC50 at TIE2 and at VEGFR2 were 4270 nM and 1.41 nM, respectively.
For `N#CCCNC(=O)Nc1snc(OCc2cc(C(=O)NC3CC3)ccc2F)c1C(N)=O` [Compound T162, 5-(2-cyanoethylcarbamoylamino)-3-[[5-(cyclopropylcarbamoyl)-2-fluoro-phenyl]methoxy]isothiazole-4-carboxamide] the same measures were 7360 nM and 3.05 nM.
`NC(=O)c1c(OCc2cc(C(=O)NC3CC3)ccc2Cl)nsc1NC(=O)NCCCN1CC[C@H](F)C1` [Compound T166, 3-[[2-chloro-5-(cyclopropylcarbamoyl)phenyl]methoxy]-5-[3-[(3S)-3-fluoropyrrolidin-1-yl]propylcarbamoylamino]isothiazole-4-carboxamide]: the 50% inhibitory concentration (IC50) is 1740 nM at TIE2, 15600 nM on EGFR and 0.45 nM on VEGFR2.
As to `CC(C)(C)[Si](C)(C)OCCCNC(=O)Nc1snc(OCc2cc(C(=O)NC3CC3)ccc2F)c1C(N)=O` [Compound T169, 5-[3-[tert-butyl(dimethyl)silyl]oxypropylcarbamoylamino]-3-[[5-(cyclopropylcarbamoyl)-2-fluoro-phenyl]methoxy]isothiazole-4-carboxamide], the IC50 at TIE2 was greater than 60000 nM; on EGFR it was greater than 60000 nM; on VEGFR2, 16.4 nM.
Consider `NC(=O)c1c(OCc2cc(C(=O)O)ccc2F)nsc1NC(=O)NCCCN1CC[C@H](F)C1` [Compound T171, 3-[[4-carbamyl-5-[3-[(3S)-3-fluoropyrrolidin-1-yl]propylcarbamylamino]isothiazol-3-yl]oxymethyl]-4-fluoro-benzoic acid], for which the figures for the IC50 on TIE2 and at EGFR were 5850 nM and 29100 nM, respectively.
In the case of `NC(=O)c1c(OCc2cc(C(=O)NC3CC3)ccc2F)nsc1NC(=O)NCCC(=O)O` [Compound T172, 3-[[4-carbamoyl-3-[[5-(cyclopropylcarbamoyl)-2-fluoro-phenyl]methoxy]isothiazol-5-yl]carbamoylamino]propanoic acid], the values for the IC50 at TIE2 and on VEGFR2 were 3260 nM and 2.6 nM, respectively.
